Laboratory results as given in US10875891B2, “Short synthetic peptide and uses thereof” (MacKay Memorial Hospital, priority 2018, dated 2020).
Entries after “also recorded” stand apart in the source; their conditions may differ. Where no end group is shown, it is not given here. [ ]: non-standard residue; d: D form.

Columns and labels:
[1] = test system: Murine psoriasis vulgaris-like skin inflammation model; assay: IMQ-induced psoriasis vulgaris-like skin inflammation model, keratinocyte proliferation by BrdU incorporation; type: in vivo, BALB/c mice; settings: 25 μM with IMQ cream, day 6; IMQ control 24.5±2.0; FIG. 9 panel B
Description: (§1) BALB/c mice (8-weeks old females; n=42) were used in this model system. […] Accordingly, in this model, each BALB/c mice received a daily topical dose (62.5 mg) of commercially available IMQ cream (Imiquimod Cream 5% w/w, Aldara™) on the shaved back and the right ear for 6 consecutive days (n=6); whereas the control mice (normal group) were treated with a control cream (n=6). For treatment, each test peptide was mixed with IMQ cream to give a concentration of 25 μM (n=6 per group). Keratinocyte proliferation was determined by BrdU incorporation. BrdU (Sigma-Aldrich) was reconstituted in DMSO as a stock solution of 80 mM. 10 μl of BrdU mixed with 90 μl of PBS was intraperitoneally injected into each mouse for 24 hr prior to euthanasia.
(§2) Slides were blocked with 10% goat serum for 60 min and then incubated with primary antibody against BrdU (1:50 dilution; GTX42641) for 3 hr at RT. The slides were then incubated with peroxidase-labeled donkey immunoglobulin for 30 min and then incubated with chromogen substrate (3,3′-diaminobenzidine) for 2 min before counterstaining with hematoxylin. Quantification was estimated based on high quality images (1208×960 pixels buffer) captured using a Nikon Eclipse 80i light microscope.

myeloma RPMI 8226 cell = assay: MTT assay, cell viability; type: cell-based, human; settings: 20 μM peptide, 24 h, serum-free RPMI1640; FIGS. 1-2
Description: The multiple myeloma line RPMI8226 or […] Raw264.7 macrophages were cultivated in complex medium (RPMI1640) supplemented with 10% (vol/vol) heat-inactivated fetal calf serum (Invitrogen), 50 μg/mL penicillin, 50 μg/mL streptomycin, and 2 mM L-glutamine at 37° C. in a 5% CO2 atmosphere
RPMI8226 cells or U266 cells were cultured in serum-free RPMI1640 medium for 24 h, and then cells seeded in 48-well culture plates (3×10^5 cells/well) and cultured in 0.5 ml fresh serum-free RPMI1640 medium containing 20 μM peptide for further 24 h. The cell viability was determined by the MTT assay.
50 μL of the MTT stock solution (5 mg MTT dissolved in 1 ml of sterile PBS) was added to each well, and 50 μL of the MTT stock solution was added to 500 μL of medium alone and used as a negative control. Each sample was Incubates at 37° C. for 4 hours. Aliquots (450 μl) from each sample were taken to a new well of 48-well culture plate, adding 100 μL DMSO, mixing thoroughly using the pipette and reacted at 37° C. for 20 min and absorbance was measured at 570 nm.

Murine dry eye model [2] = assay: Dry eye animal model, fluorescein eye stain test for corneal injuries; type: in vivo, C57BL/6 mice; settings: peptide 50 μM topically three times a day for 4 days; for reduction in mean corneal fluorescein staining score compared with vehicle treated control mice: FIG. 3 panel B
Description: (§3) C57BL/6 mice (7-8 weeks old, each weighted about 18 to 25 g) were used in this model system. All mice were maintained in the animal facility in accordance with the procedures approved by Mackay Memorial Hospital Review Board (Taiwan, R.O. C.). All animal experimental procedures were conducted according to the ARVO Statement for the Use of Animals in Ophthalmic and Vision Research.
(§4) Dry eyes were induced by placing mice in a controlled environment chamber (CEC) for 14 days in accordance with procedures previously described by Barabino et al (IVOS (2005) 46(8), 2766-2771). Mice placed in the CEC were exposed to a condition, in which relative humidity (RH) was maintained at <25%, temperature at 20-22° C., and airflow at about 15 L/min, for 12 hours per day. Control mice were kept in a normal environment (RH>50%, no air flow, temperature of 20-22° C.) for the same duration.
(§5) A common artificial tear formulation, 1% carboxymethylcelllulose (CMC) dissolved in balanced salt solution (BSS) was used as the peptide vehicle. Peptide (50 μM) or 1% CMC vehicle was topically administered to eyes three times a day, for 4 days.
Corneal epithelial injury was determined by staining with topical fluorescein (100 mg/ml or 10%; FLUORESCITE™, Alcon Laboratories). For dosing, topical fluorescein (0.6 μL of 0.5% sodium fluorescein dissolved in 4.4 μL BSS per eye) was applied via a micro-pipette to the lateral canthus for 15 sec. Corneal fluorescein staining was examined with a slit-lamp biomicroscope under cobalt blue light and photographed with a digital camera. Data is presented as mean±SD. Dye staining of the cornea was scored in a blinded manner as follows: score 0 for no punctuate staining; score 1 when less than one third of the cornea was stained; score 2 when two thirds or less was stained; and score 3 when more than two thirds was stained.

Murine dry eye model [3] = assay: Dry eye animal model, tear production by phenol red thread test; type: in vivo, C57BL/6 mice; settings: treated for 4 days; P<0.01 versus vehicle treatment; FIG. 4
Description: as §3, §4, §5
Tear production was measured with phenol red-impregnated cotton threads (Zone-Quick; Oasis, Glendora, Calif.). The validity of this test in mice was performed as previously described (Dursun et al., Invest Ophthalmol Vis Sci. 2002; 43:632-8). The threads were held with jeweler forceps and placed in the lateral canthus for 60 seconds. The tear production expressed in millimeters of thread wet by the tear and turned red.

[4] = test system: Murine psoriasis vulgaris-like skin inflammation model; assay: IMQ-induced psoriasis vulgaris-like skin inflammation model, H&E histology of back skin; type: in vivo, BALB/c mice; settings: 25 μM with IMQ cream, 6 days; IMQ control 122±10.5; FIG. 8 panel B
Description: as §1
Back skin of the mouse was fixed overnight in 4% paraformaldehyde, dehydrated with graded ethanol series, and paraffinized. Fixed samples were deparaffinized in xylene and rehydrated in a graded series of ethanol. Tissues were sliced into 5-μm sections. General histology was performed using hematoxylin and eosin (H&E) (Merck, Rayway, N.J., USA).
as §2

Substance | myeloma RPMI 8226 cell viability (MTT assay) (myeloma RPMI 8226 cell) | reduction in mean corneal fluorescein staining score compared with vehicle treated control mice (Murine dry eye model [2]) | tear volume (tear production) (Murine dry eye model [3]) | other results
NH2-(D-Asp)-Ile-Thr-Tyr-Val-Arg-Leu-Lys-Phe-COOH ([dD]ITYVRLKF; not fully specified (N-terminus, C-terminus); printed as NH2-(D-Asp)-Ile-Thr-Tyr-Val-Arg-Leu-Lys-Phe-COOH) [9-mer DD, 9-mer analogue, aspartate replaced by D-form aspartate] |  |  |  | hyperproliferation of keratinocytes, BrdU-positive cells in the epidermis (labeling index) [1]: 23.3±2.5%
NH2-Ala-Ile-Thr-Tyr-Val-Arg-Leu-Lys-Phe-COOH (AITYVRLKF; not fully specified (N-terminus, C-terminus); printed as NH2-Ala-Ile-Thr-Tyr-Val-Arg-Leu-Lys-Phe-COOH) [9-mer Da, 9-mer analogue, aspartate replaced by alanine] | sustain part of the inhibitory activity | about 3 fold | significantly increased | 
NH2-Asp-Ala-Thr-Tyr-Val-Arg-Leu-Lys-Phe-COOH (DATYVRLKF; not fully specified (N-terminus, C-terminus); printed as NH2-Asp-Ala-Thr-Tyr-Val-Arg-Leu-Lys-Phe-COOH) [9-mer Ia, 9-mer analogue, isoleucine replaced by alanine] | loss of the inhibitory activity |  |  | 
NH2-Asp-Ile-Ala-Tyr-Val-Arg-Leu-Lys-Phe-COOH (DIAYVRLKF; not fully specified (N-terminus, C-terminus); printed as NH2-Asp-Ile-Ala-Tyr-Val-Arg-Leu-Lys-Phe-COOH) [9-mer Ta, 9-mer analogue, threonine replaced by alanine] | loss of the inhibitory activity |  |  | 
NH2-Asp-Ile-Thr-Ala-Val-Arg-Leu-Lys-Phe-COOH (DITAVRLKF; not fully specified (N-terminus, C-terminus); printed as NH2-Asp-Ile-Thr-Ala-Val-Arg-Leu-Lys-Phe-COOH) [9-mer Ya, 9-mer analogue, tyrosine replaced by alanine] | loss of the inhibitory activity |  |  | 
NH2-Asp-Ile-Thr-Tyr-Ala-Arg-Leu-Lys-Phe-COOH (DITYARLKF; not fully specified (N-terminus, C-terminus); printed as NH2-Asp-Ile-Thr-Tyr-Ala-Arg-Leu-Lys-Phe-COOH) [9-mer Va, 9-mer analogue, valine replaced by alanine] | sustain part of the inhibitory activity | about 3 fold | significantly increased | 
NH2-Asp-Ile-Thr-Tyr-Val-Ala-Leu-Lys-Phe-COOH (DITYVALKF; not fully specified (N-terminus, C-terminus); printed as NH2-Asp-Ile-Thr-Tyr-Val-Ala-Leu-Lys-Phe-COOH) [9-mer Ra, 9-mer analogue, arginine replaced by alanine] | loss of the inhibitory activity |  |  | 
NH2-Asp-Ile-Thr-Tyr-Val-Arg-Ala-Lys-Phe-COOH (DITYVRAKF; not fully specified (N-terminus, C-terminus); printed as NH2-Asp-Ile-Thr-Tyr-Val-Arg-Ala-Lys-Phe-COOH) [9-mer La, 9-mer analogue, leucine replaced by alanine] | loss of the inhibitory activity |  |  | 
NH2-Asp-Ile-Thr-Tyr-Val-Arg-Leu-Ala-Phe-COOH (DITYVRLAF; not fully specified (N-terminus, C-terminus); printed as NH2-Asp-Ile-Thr-Tyr-Val-Arg-Leu-Ala-Phe-COOH) [9-mer Ka, 9-mer analogue, lysine replaced by alanine] | loss of the inhibitory activity |  |  | 
NH2-Asp-Ile-Thr-Tyr-Val-Arg-Leu-Lys-(D-Phe)-COOH (DITYVRLK[dF]; not fully specified (N-terminus, C-terminus); printed as NH2-Asp-Ile-Thr-Tyr-Val-Arg-Leu-Lys-(D-Phe)-COOH) [9-mer DF, 9-mer analogue, phenylalanine in D-form] |  | about 3 fold | significantly increased | acanthosis, quantified epidermal thickness [4]: 35.7±4.2 μm; hyperproliferation of keratinocytes, BrdU-positive cells in the epidermis (labeling index) [1]: 6.3±1.2%
NH2-Asp-Ile-Thr-Tyr-Val-Arg-Leu-Lys-Ala-COOH (DITYVRLKA; not fully specified (N-terminus, C-terminus); printed as NH2-Asp-Ile-Thr-Tyr-Val-Arg-Leu-Lys-Ala-COOH) [9-mer Fa, 9-mer analogue, phenylalanine replaced by alanine] | sustain part of the inhibitory activity | about 3 fold | significantly increased | 
NH2-Ile-Thr-Tyr-Val-Arg-Leu-Lys-Ala-COOH (ITYVRLKA; not fully specified (N-terminus, C-terminus); printed as NH2-Ile-Thr-Tyr-Val-Arg-Leu-Lys-Ala-COOH) [8-mer, control 8-mer peptide, aspartate residue of the 9-mer deleted] |  |  |  | corneal fluorescein stain (corneal damage), result in words (Murine dry eye model [2]; vs vehicle): no such effect
NH2-Lys-Ala-Phe-Asp-Ile-Thr-Tyr-Val-Arg-Leu-Lys-Phe-COOH (KAFDITYVRLKF; not fully specified (N-terminus, C-terminus); printed as NH2-Lys-Ala-Phe-Asp-Ile-Thr-Tyr-Val-Arg-Leu-Lys-Phe-COOH) [12-mer, 9-mer with additional 3 amino acid residues at the N-terminal] | successfully suppressed myeloma RPMI 8226 cell viability; also recorded: effective in suppressing myeloma cell viability; also recorded: more potent at lower dose | about 3 fold | significantly increased | acanthosis, quantified epidermal thickness [4]: 35.3±4.1 μm; hyperproliferation of keratinocytes, BrdU-positive cells in the epidermis (labeling index) [1]: 8.5±1.4%
